Test results as given in patent US20080253976A1, “Personal Care Compositions Comprising An Antimicrobial Blend of Essential Oils or Constituents Thereof” (priority 2007, published 2008).
Where two headings read alike, the source gives them in different places.

Tests used:
[1] = test system: Gingipain; assay: Inhibition of bacterial virulence factor Gingipain; format: biochemical, P. gingivalis; conditions: at 200 uM for compounds, 0.001% for oils/extracts
Excerpt: (§1) P. gingivalis is a gram-negative anaerobe implicated in periodontal disease in humans and companion animals. P. gingivalis infects the gingival sulcus, producing a number of virulence factors including bacterial enzymes such as gingipains, METase and Cystalysin. Gingipains act on several immune system molecules, including kinogens, complement factors, immunoglobins, resulting in fluid influx into the sulcus, neutrophil recruitment, and bleeding. The ultimate result is a host inflammatory response characterized by cyclooxygenase (COX) induction, metalloproteinase (MMP) expression, prostaglandin elevation and reactive oxygen elevations which result in tissue damage and bone resorption, eventually leading to tooth detachment. MMP's (including various subtypes, e.g., MMP 1, 2, 3, 8, 9, 12, 13), are host extracellular matrix proteases that contribute to tissue destruction and remodeling. COX enzymes catalyze the conversion of arachidonic acid into prostaglandins, which result in vasodilation, redness, puffiness and pain.
(§2) Where no data are reported is not an indication that the compound/active has no activity; rather that the compound was not tested for that activity.

[2] = target: METase (Porphyromonas gingivalis, UniProt Q7MX71); assay: Inhibition of bacterial virulence factor METase; format: biochemical, P. gingivalis; conditions: read-out: METase % inhibition
Sequence of METase (Q7MX71 whole entry): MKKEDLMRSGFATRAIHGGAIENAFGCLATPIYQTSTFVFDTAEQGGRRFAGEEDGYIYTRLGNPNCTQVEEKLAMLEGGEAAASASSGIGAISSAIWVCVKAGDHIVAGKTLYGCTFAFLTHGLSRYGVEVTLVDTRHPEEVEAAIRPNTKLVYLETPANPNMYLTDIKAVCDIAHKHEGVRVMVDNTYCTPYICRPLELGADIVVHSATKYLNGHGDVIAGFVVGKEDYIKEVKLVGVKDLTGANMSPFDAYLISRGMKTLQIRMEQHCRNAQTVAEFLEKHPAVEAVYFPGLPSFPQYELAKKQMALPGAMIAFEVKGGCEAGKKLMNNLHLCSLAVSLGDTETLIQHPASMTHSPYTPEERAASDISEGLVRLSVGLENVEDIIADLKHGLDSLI
Excerpt: as §1
(§3) Inhibition of the proteolytic action of gingipains on immuno-regulatory proteins should lead to a reduction in the inflammatory host-response and subsequent tissue damage. Other bacterial enzymes, for example, METase and Cystalysin, are involved in degrading sulfur-containing amino acids to produce volatile sulfur compounds (VSC's) such as hydrogen sulfide or methyl mercaptan that lead to bad breath or oral malodor. Inhibition of METase and Cystalysin is thus an important function for oral care agents as are inhibitory activities against key host pro-inflammatory factors including matrix metalloproteinases (MMP's), cyclooxygenases (COX) and prostaglandin (PGE2).
as §2

[3] = test system: Cystalysin; assay: Inhibition of bacterial virulence factor Cystalysin; format: biochemical, P. gingivalis; conditions: at 200 uM for compounds, 0.001% for oils/extracts
Excerpt: as §1, §3, §2

[4] = target: T1, COX-2 (Homo sapiens, UniProt P35354); assay: Inhibition of host inflammation factor COX-2; format: biochemical; conditions: read-out: COX-2 % inhibition
T1 sequence (P35354 18-604): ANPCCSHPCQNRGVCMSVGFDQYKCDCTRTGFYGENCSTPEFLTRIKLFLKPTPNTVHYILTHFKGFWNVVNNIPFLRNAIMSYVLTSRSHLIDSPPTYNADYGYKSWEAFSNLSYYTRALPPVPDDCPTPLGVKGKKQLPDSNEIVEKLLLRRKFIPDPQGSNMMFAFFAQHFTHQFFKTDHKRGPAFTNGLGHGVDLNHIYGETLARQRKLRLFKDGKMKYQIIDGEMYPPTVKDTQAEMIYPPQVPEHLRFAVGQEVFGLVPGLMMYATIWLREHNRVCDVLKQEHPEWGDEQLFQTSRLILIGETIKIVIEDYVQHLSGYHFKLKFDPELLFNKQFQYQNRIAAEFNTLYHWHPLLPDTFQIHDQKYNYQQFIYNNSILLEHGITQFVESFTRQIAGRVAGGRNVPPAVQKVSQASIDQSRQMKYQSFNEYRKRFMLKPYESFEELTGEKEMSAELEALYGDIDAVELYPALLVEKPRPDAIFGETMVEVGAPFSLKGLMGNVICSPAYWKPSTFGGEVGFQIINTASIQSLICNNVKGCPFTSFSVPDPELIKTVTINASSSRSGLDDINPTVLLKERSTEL
Excerpt: as §1, §2

[5] = test system: MMP (2, 3, 12); assay: Inhibition of host inflammation factor MMP (2, 3, 12); format: biochemical; conditions: at 200 uM for compounds, 0.001% for oils/extracts
Excerpt: as §1, §2

[6] = test system: PGE2; assay: Inhibition of host inflammation factor PGE2; format: cell-based; conditions: read-out: PGE2 % inhibition
Excerpt: as §3, §2

[7] = test system: oral anaerobic bacterial biofilm containing Fusobacterium nucleatum; assay: In vitro biofilm growth inhibition model (30 second exposure, MIC); format: cell-based; conditions: lowest concentration that completely inhibited biofilm growth following a 30 second exposure
Experimental: The method involves forming a bacterial biofilm in a plastic uncoated 12-well tissue culture plate. The culture material is removed from the wells and the biofilm is treated with a test solution or appropriate control usually for 30 seconds. Subsequently, the biofilm is washed twice with sterile saline and fresh medium is placed on the biofilm which is then incubated at 37° C. overnight. The next day, the culture in each well is suspended and the optical density determined to assess biofilm growth.

[8] = test system: Total Facultative Anaerobes (TFA); assay: Plaque Chip Assay (PCA), Total Facultative Anaerobes count; format: cell-based, oral bacteria from whole saliva of healthy human donors; conditions: vs. water
Experimental: (§4) In further studies, individual essential oil compounds and blends were evaluated for germ kill efficacy against oral anaerobes. For comparison, a cetyl pyridinium chloride solution (350 ppm) and a commercially available essential oil mouthrinse (Listerine® Cool Mint with ˜0.258% essential oil level) were tested.
(§5) Aqueous solutions (comprising 1% poloxamer 407 and 15% ethanol) were prepared with the essential oil load fixed at 0.15%. […] The test solutions were used neat in this experiment. The essential oil compounds and blends were tested using the Plaque Chip Assay (PCA) method, developed in the Procter & Gamble laboratories. The PCA method measures a combination of the following parameters: antibacterial efficacy (bacteria or germ kill), biofilm dispersion efficacy/chemical removal (chemical cleaning, e.g., detergency without germ kill), biofilm prevention and/or inhibition efficacy (prevention of biofilm growth) and active substantivity (cumulative efficacy).
(§6) The PCA method uses unmodified, whole saliva (obtained from multiple healthy human donors) to grow a biofilm containing relevant oral species on the surface of hydroxyapatite (HA) discs (the ‘chip’) mounted in the cap of plastic tubes (Nunc™ Cryovial). HA chips are subjected to five one-minute treatment and re-growth cycles, designed to mimic typical oral care product usage (dentifrice, rinse, gel) over a 2½ day period. Fresh saliva is replaced after each treatment, wherein the saliva used serves both as an inoculum of relevant oral bacteria, and as a nutrient source for the growth of the biofilm. Sixteen hours after the final treatment cycle, the biofilm remaining on the chip is removed, and the number of viable bacteria contained within it are measured by standard agar plate counting on ETSA (Enriched Trypticase Soy Agar) and ETSA-NV (Enriched Trypticase Soy Agar Supplemented with Nalidixic Acid and Vancomycin) media. The number of colony forming units per unit volume (cfu/ml) is measured for Total Facultative Anaerobes (TFA) and Gram Negative Anaerobes (GNA). Results are summarized in Table 3 below reported as Log Reduction in TFA and GNA colony forming units provided by test formulations vs. control, i.e., water or base aqueous solution (comprising 1% poloxamer 407 and 15% ethanol). Reductions in TFA or GNA bacterial counts vs. control are reasonably predictive of in vivo efficacy, in particular plaque removal efficacy and breath malodor reduction. […] Particularly for blends containing 3 or more components, the relative amounts of each component can be adjusted to provide the best germ kill efficacy along with the desired flavor profile.

[9] = test system: Gram Negative Anaerobes (GNA); assay: Plaque Chip Assay (PCA), Gram Negative Anaerobes count; format: cell-based, oral bacteria from whole saliva of healthy human donors; conditions: vs. water
Experimental: as §4, §5, §6

[10] = target: COX-1 (Homo sapiens, UniProt P23219); assay: Inhibition of host inflammation factor COX-1; format: biochemical; conditions: at 200 uM for compounds, 0.001% for oils/extracts
Sequence of COX-1 (P23219 24-599): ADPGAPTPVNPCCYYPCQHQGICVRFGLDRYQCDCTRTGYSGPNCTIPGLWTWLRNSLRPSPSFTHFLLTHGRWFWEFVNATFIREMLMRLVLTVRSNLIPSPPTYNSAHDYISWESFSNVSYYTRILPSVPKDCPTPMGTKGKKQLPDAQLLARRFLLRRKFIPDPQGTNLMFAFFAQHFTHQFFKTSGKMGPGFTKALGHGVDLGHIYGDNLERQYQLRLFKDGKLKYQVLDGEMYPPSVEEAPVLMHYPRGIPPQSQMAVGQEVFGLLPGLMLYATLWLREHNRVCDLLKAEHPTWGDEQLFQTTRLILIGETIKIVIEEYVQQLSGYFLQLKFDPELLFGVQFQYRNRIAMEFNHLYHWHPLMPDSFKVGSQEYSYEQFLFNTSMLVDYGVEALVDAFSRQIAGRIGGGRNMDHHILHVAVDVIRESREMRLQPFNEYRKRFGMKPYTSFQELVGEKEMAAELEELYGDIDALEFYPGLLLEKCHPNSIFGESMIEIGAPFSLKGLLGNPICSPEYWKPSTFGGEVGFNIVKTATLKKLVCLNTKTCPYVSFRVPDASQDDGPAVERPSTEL

[11] = essential oil at 0.15% solution, five one-minute treatments
[12] = at 200 uM for compounds, 0.001% for oils/extracts

SMILES | Gingipain % inhibition [1] | inhibition at 200 µM [2] [%] | Cystalysin % inhibition [3] | inhibition at 200 µM [4] [%] | MMP (2, 3, 12) % inhibition [5] | inhibition at 200 µM [6] [%] | Total Oil Level Inhibiting Biofilm Growth (MIC), single component [7] [%] | Log Reduction in cfu/ml vs Control, TFA [8, 11] [log cfu/ml] | Log Reduction in cfu/ml vs Control, GNA [9, 11] [log cfu/ml] | Log Reduction in cfu/ml vs Control, TFA ([8]; 350 ppm solution) [log cfu/ml] | Log Reduction in cfu/ml vs Control, GNA ([9]; 350 ppm solution) [log cfu/ml] | inhibition at 200 µM [6, 12] [%] | inhibition at 200 µM [10] [%] | inhibition at 200 µM [4, 12] [%]
Cc1ccc(C(C)C)cc1O [Carvacrol] | + (% inhibition <25% at 200 uM for compounds, 0.001% for oils/extracts) | < 25 | + (% inhibition <25% at 200 uM for compounds, 0.001% for oils/extracts) | > 25 | + (% inhibition <25% at 200 uM for compounds, 0.001% for oils/extracts) | > 75 | 0.1 | 0.08 | 0.42 | – | – | – | – | –
CCCCCCCCCCCCCCCC[n+]1ccccc1 [Cetylpyridinium Chloride (CPC), Cetylpyridinium Chloride, reference compound] | – | – | – | – | – | – | – | – | – | 1.45 | 1.31 | – | – | –
CC(C)=CCCC(C)=CC=O [Citral] | + (% inhibition <25% at 200 uM for compounds, 0.001% for oils/extracts) | < 25 | – | – | + (% inhibition <25% at 200 uM for compounds, 0.001% for oils/extracts) | – | 0.2 | 0.33 | 0.72 | – | – | > 50 | – | –
CC12CCC(CC1)C(C)(C)O2 [Eucalyptol] | + (% inhibition <25% at 200 uM for compounds, 0.001% for oils/extracts) | < 25 | + (% inhibition <25% at 200 uM for compounds, 0.001% for oils/extracts) | – | + (% inhibition <25% at 200 uM for compounds, 0.001% for oils/extracts) | – | 0.1 | −0.06 | 0.38 | – | – | > 75 | – | –
C=CCc1ccc(O)c(OC)c1 [Eugenol] | + (% inhibition <25% at 200 uM for compounds, 0.001% for oils/extracts) | < 25 | + (% inhibition <25% at 200 uM for compounds, 0.001% for oils/extracts) | > 25 | + (% inhibition <25% at 200 uM for compounds, 0.001% for oils/extracts) | > 75 | 0.2 | 0.09 | 0.70 | – | – | – | – | –
CC(C)=CCC/C(C)=C/CO [Geraniol] | – | < 25 | + (% inhibition <25% at 200 uM for compounds, 0.001% for oils/extracts) | – | + (% inhibition <25% at 200 uM for compounds, 0.001% for oils/extracts) | – | 0.1 | 0.47 | 0.60 | – | – | > 25 | > 50 | > 25
Cc1ccc(C(C)C)c(O)c1 [Thymol, reference compound] | – | – | – | – | – | – | 0.1 | – | – | – | – | – | – | –
